Assay results reported in patent publication USRE39530E1, “3-amino-3-arylpropan-1-ol-compounds, their preparation and use” (Gruenenthal GmbH, priority 1999, dated 2007).

Tests used:
[1] = system: phenylquinone-induced writhing; assay: Phenylquinone-induced writhing test on mice; format: in vivo; settings: male NMRI mice, 10 min before phenylquinone i.p., writhing counted 5 to 20 min after phenylquinone
Method: The analgesic activity was investigated on phenylquinone-induced writhing in mice (modified by I. C. Hendershot and J. Forsaith (1959) J. Pharmacol. Exp. Ther. 125, 237-240). Male NMRI mice weighing 25 to 30 g were used for this. Groups of 10 animals per dose of substance received 0.3 ml/mouse of a 0.02% aqueous solution of phenylquinone (phenylbenzoquinone), Sigma, Deisenhofen; preparation of the solution with addition of 5% ethanol and storage in a water bath at 45° C.) as an intraperitoneal administration 10 minutes after intravenous administration of the test substances. The animals were placed individually in observation cages. The number of pain-induced extension movements (so-called writhing reactions=straightening of the body with stretching out of the hind extremities) 5 to 20 minutes after the administration of phenylquinone was counted by means of a push-button counter. Animals which receive only physiological saline solution were also run as a control. All the substances were tested in the standard dosage of 10 mg/kg. The percentage inhibition (% inhibition) of the writhing reaction by a substance was calculated in accordance with the following equation: [formula] For some substances, the ED50 values with 95% confidence limits of the writhing reaction were calculated from the dose-dependent decrease in the writhing reactions compared with phenylquinone control groups investigated in parallel by means of regression analysis (evaluation program of Martens EDV Service, Eckental).

[2] = system: bonding site 2 of the sodium channel (BTX bonding site); assay: Bonding investigations on the sodium channel, bonding site 2 (BTX bonding); format: binding; settings: rat cerebrocortex synaptosomes; for BTX bonding at 10 μM: percentage inhibition at 10 μM test substance, [3H]-batrachotoxin A20 α-benzoate 10 nM
Method: Bonding Site 2 (BTX bonding)
Bonding site 2 of the sodium channel is the so-called batrachotoxin (BTX) bonding site. [^3H]-Batrachotoxin A20 α-benzoate (10 nM in the batch) was employed as the ligand. These ion channel particles (synaptosomes) were concentrated out of the rat cerebrocortex by the method of Gray and Whittaker (E. G. Gray and V. P. Whittaker (1962) J. Anat. 76, 79-88). The radioactivity measured in the presence of veratridin (0.3 mM in the batch) is defined as non-specific bonding. Incubation at 37° C. for 120 min. The assay conditions were implemented in accordance with the publication of Pauwels, Leysen and Laduron (P. J. Pauwels, J. E. Leysen and P. M. Laduron (1986) Eur. J. Pharmacol. 124, 291-298).
(§1) In addition to the percentage inhibition of the test systems at fixed test substance concentrations (10 μM in the batch), dose-dependencies were investigated. In this investigation, IC50 values are obtained, and these can be converted by the “Cheng-Prusoff equation” (Y. C. Cheng and W. H. Prusoff (1973) Biochem. Pharmacol. 22, 3099-3108) into inhibitor constants (Ki). The IC50 values were obtained with the aid of the “Figure P” computer program (version 6.0, Biosoft, Cambridge, England). Km values were calculated by the method of Lineweaver and Burk (H. Lineweaver and D. Burk (1934) J. Am. Chem. Soc. 56, 658-666). The “Ligand” computer program (version 4, Biosoft, England) is used to obtain KD values.

[3] = system: benzothiazepine bonding site of the L-type calcium channel; assay: Bonding investigations on the L calcium channel, benzothiazepine bonding site (diltiazem bonding); format: binding; settings: rat cerebrocortex membranes; for Diltiazem bonding at 10 μM: percentage inhibition at 10 μM test substance, [3H]-cis-(+)-diltiazem 5 nM
Method: Benzothiazepine Bonding Site (diltiazem bonding)
The biological membrane material was isolated from the cerebrocortex of the rat. [^3H]-cis-(+)-Diltiazem (5 nM in the batch) was used as the ligand. Incubation for 20 minutes at 25° C. The radioactivity measured in the presence of (+)-diltiazem (10^−6 M in the batch) is defined as non-specific bonding. At the end of the incubation, the non-bonded content of radioactive ligand is removed with the aid of a filtration process over Whatman glass fiber GF/B membranes. After a washing process, the membranes are then measured on a β-counter. The method has been established in accordance with the publication of Schoemaker and Langer (H. Schoemaker and S. Z. Langer (1985) Eur. J. Pharmacol. 111, 273-277).
as §1

| Compound | % Inhibition of the writhing reaction at 10 mg/kg intravenously [1] | BTX bonding at 10 μM [2] | Diltiazem bonding at 10 μM [3] | Kd ([2]; radioligand, means±SEM, N=3, read-out: KD value for this bonding site) | Kd ([3]; radioligand, means±SEM, N=3, read-out: KD value for this high-affinity bonding site) |
| --- | --- | --- | --- | --- | --- |
| Cc1ccccc1COC1CCCCC1C(c1ccccc1)N(C)C.Cl (stereo not shown) [Example 1, Dimethyl-{[2-(2-methyl-benzyloxy)cyclohexyl]phenylmethyl}-amine hydrochloride] | 85% | 99% | 82% |  |  |
| CN(C)C(c1ccccc1)C1CCCCC1OC(=O)c1ccc(C(F)(F)F)cc1.Cl (stereo not shown) [Example 2, [2-(Dimethylaminophenylmethyl)cyclohexyl]-4-trifluoromethylbenzoate hydrochloride] | 48% | 98% |  |  |  |
| COc1ccc(C(=O)OC2CCCCC2C(c2ccccc2)N(C)C)cc1.Cl (stereo not shown) [Example 3, [2-(Dimethylaminophenylmethyl)cyclohexyl]4-methoxybenzoate hydrochloride] | 43% | 89% | 65% |  |  |
| CN(C)C(c1ccccc1Cl)C1CCCCC1OCc1ccccc1Cl.Cl (stereo not shown) [Example 4, {[2-(2-Chlorobenzyloxy)cyclohexyl]-(2-chlorophenyl)methyl}-dimethylamine hydrochloride] | 32% | 92% | 73% |  |  |
| CN(C)C(c1ccccc1)C1CCCCC1OCc1cccc(F)c1.Cl (stereo not shown) [Example 5, {[2-(3-Fluorobenzyloxy)cyclohexyl]-phenylmethyl}dimethylamine hydrochloride] | 74% | 98% | 89% |  |  |
| CN(C)C(c1ccccc1)C1CCCCC1OCc1ccc(F)cc1.Cl (stereo not shown) [Example 6, {[2-(4-Fluorobenzyloxy)cyclohexyl]-phenylmethyl}dimethylamine hydrochloride] | 68% | 97% | 86% |  |  |
| [^3H]-Batrachotoxin A20 α-benzoate [reference compound] |  |  |  | 24.6 ± 1.56 nM |  |
| [^3H]-cis-(+)-Diltiazem [reference compound] |  |  |  |  | 4.1 ± 0.75 nM |
